Reference: US7649017B2, “Compositions intended for the treatment of peripheral neuropathies, preparation thereof and uses of same” (Universite de la Mediterranee, priority 2002, dated 2010)

Legend:
[1] = tested on: C22 males (murine CMT model); experiment: Rotor-Rod test, double-blind study vitamin C versus placebo in C22 males; type: in vivo, mice; settings: 1.12 mg once a week by gavage
Protocol: Rotor-Rod test performance was evaluated every month (at 3 months, 4 months and 5 months). The standard deviation is indicated by the darkened section at the top of each column. […] Only males (from two litters) were used, since the degree of severity is sex-specific. […] The fact that only males were included is very important, because it is known that severity varies widely in human patients according to sex, a variability also seen in the animal models used, in which there appears to be a major modifier gene having an impact on myelination. “Genetic background” thus seems to play a significant role in the severity of the phenotype. It was therefore justified to work with individuals from a same litter. […] The animals were then evaluated in the Rotor-Rod test. The study lasted for three months (age of animals: two to five months). The results are illustrated in FIG. 1.

C22 mice = experiment: Histologic analysis of sciatic nerve, percentage of myelinated fibers; type: in vivo; settings: C22 mice treated for three months
Protocol: The sciatic nerve was harvested and the percentage of myelinated fibers was determined by histologic analysis and is given in the figure on the ordinate, together with the results of a non-transgenic control (more than 95% of peripheral nerve fibers are myelinated in adults).
To obtain data on the mechanism of this phenotypic correction, the histologic features of the nerves of treated animals were studied. For this, some of the treated animals were sacrificed and a histologic analysis was performed. The percentage of myelinated nerve fibers increased with treatment (FIG. 3). This percentage was 95% for non-transgenic animals, 20-30% for untreated C22 mice and 70% for treated animals. The treatment therefore reactivated myelination, which was inhibited by overexpression of PMP22.

[2] = tested on: C22 animals (murine CMT model); experiment: Bar crossing (posture) test and grip test, third study; type: in vivo, mice
Protocol: FIG. 2: A second series of preclinical tests with the same design as the first series (described in FIG. 1) was carried out. Animals were tested after one month and two months of treatment using the bar crossing test (the longer the animal takes to cross the bar or the more it slips off, the worse the locomotor performance). Animals were also tested in the grip test which measures the traction strength that must be applied for the animal to release the bar (the higher this value the better the performance). To confirm these findings and further investigate the mechanism of phenotypic correction, a third study was carried out. Two tests were used: a posture test (crossing a bar that gets progressively narrower) and a test of muscle strength, the “grip test”. FIG. 2 illustrates the results after two months of treatment. […] This test is a good indicator of muscle strength.

[3] = tested on: transgenic C22 animals (murine CMT model, human YAC containing the PMP22 gene); experiment: Rotor-Rod test, first open trial in transgenic C22 animals; type: in vivo, mice; settings: treated with vitamin C
Protocol: To better understand the pathophysiology of this disease and to propose therapeutic solutions, a murine disease model was constructed in 1996 by transgenesis of a human YAC containing the PMP22 gene (Huxley et al., Human Molecular Genetics, 1996, Vol. 5, No. 5, 563-569). […] The action of vitamin C was tested in this model. A first “open” trial was carried out, without inclusion criteria, by simply separating males and females so as to rapidly determine whether a phenotypic correction effect could be seen. The Rotor-Rod test, classically used in pharmacology, was chosen as the criterion of muscle strength. […] The results, expressed in seconds, confirm that males were more severely affected (males in this line even have early mortality, since all males die before 10 months of age).

[4] = tested on: C22 males (murine CMT model); experiment: Survival of treated C22 males under continued treatment; type: in vivo, mice; settings: continued vitamin C treatment; untreated males die before 10 months of age
Source text: The results, expressed in seconds, confirm that males were more severely affected (males in this line even have early mortality, since all males die before 10 months of age).
Performance continued to improve, even after taking into account that the animals had aged.

## O=C1O[C@H]([C@@H](O)CO)C(O)=C1O [vitamin C, ascorbic acid]
[1]; first month
  Rotor-Rod test performance, first month of treatment: not very effective
[1]; from the second month
  Time on the bar (Rotor-Rod test), second month of treatment: ~50 s
[1]; third month
  Rotor-Rod test performance, third month of treatment: further improved
C22 mice
  Percentage of myelinated nerve fibers: 70%
[2]; after one and two months of treatment
  Bar crossing performance: deteriorated at the first month, then improved during the second
[2]; after two months of treatment
  Grip test (muscle strength): improvement was also seen starting from two months of treatment
[3]; C22 females
  Seconds on the bar (Rotor-Rod test), treated animals: 45.7 ± 10 s
[3]; C22 males
  Seconds on the bar (Rotor-Rod test), treated animals: 46 ± 14 s
[4]
  Age at which treated males were still alive: still alive at age 24 months
